Measured values as given in PubChem BioAssay AID330 (DTP/NCI, 2004).
Inconclusive results and toxic doses are left out. The calls were made as follows: active = survival T/C of 150% or more; inactive = T/C below 125% in these data. Peptide text beside a SMILES is read from it.

System: P388 leukemia ip, CD2F1 mice, survival T/C
Assay: NCI In Vivo Anticancer Drug Screen. Data for tumor model P388 Leukemia (intraperitoneal) in CD2F1 (CDF1) mice
Settings: endpoint: median survival time, higher = longer survival
Outline: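 Mice carrying the transplanted tumor received test compound or vehicle. Survival was recorded in each group, and the value is the treated-group measurement divided by that of the vehicle-treated control group.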

[1] = dose: 12.5 mg/kg/injection, schedule: Q01DX005 (ip), vehicle: saline with Tween-80
[2] = dose: 25.0 mg/kg/injection, schedule: Q01DX005 (ip), vehicle: saline with Tween-80
[3] = dose: 50.0 mg/kg/injection, schedule: Q01DX005 (ip), vehicle: saline with Tween-80
[4] = dose: 100.0 mg/kg/injection, schedule: Q01DX005 (ip), vehicle: saline with Tween-80
[5] = dose: 60.0 mg/kg/injection, schedule: Q01DX005 (ip), vehicle: saline with Tween-80
[6] = dose: 120.0 mg/kg/injection, schedule: Q01DX005 (ip), vehicle: saline with Tween-80
[7] = dose: 240.0 mg/kg/injection, schedule: Q01DX005 (ip), vehicle: saline with Tween-80
[8] = dose: 200.0 mg/kg/injection, schedule: Q01DX005 (ip), vehicle: saline with Tween-80

Measured: T/C

CN(C)C1C(=O)C(C(=O)NP(=O)(NCCCO)N(CCCl)CCCl)=C(O)C2(O)C(=O)C3=C(O)c4c(O)cccc4C(C)(O)C3CC12 (stereo unspecified)
inactive: dose: 0.25 mg/kg/injection, schedule: Q01DX005 (ip), vehicle: saline 92 % of control | dose: 0.5 mg/kg/injection, schedule: Q01DX005 (ip), vehicle: saline 102 % of control | dose: 1.0 mg/kg/injection, schedule: Q01DX005 (ip), vehicle: saline 104 % of control | dose: 2.0 mg/kg/injection, schedule: Q01DX005 (ip), vehicle: saline 100 % of control | dose: 3.13 mg/kg/injection, schedule: Q04DX003 (ip), vehicle: saline 98 % of control | dose: 4.0 mg/kg/injection, schedule: Q01DX005 (ip), vehicle: saline 101 % of control | dose: 6.25 mg/kg/injection, schedule: Q04DX003 (ip), vehicle: saline 102 % of control | dose: 8.0 mg/kg/injection, schedule: Q01DX005 (ip), vehicle: saline 101 % of control | dose: 12.5 mg/kg/injection, schedule: Q04DX003 (ip), vehicle: saline 103 % of control | dose: 25.0 mg/kg/injection, schedule: Q04DX003 (ip), vehicle: saline 107 % of control | dose: 50.0 mg/kg/injection, schedule: Q04DX003 (ip), vehicle: saline 108 % of control

CCCCN(CC)CCCCCCCCCCN1CCCc2cc(OC)ccc21
inactive: [1] 101 % of control | [2] 111 % of control | [3] 115 % of control | [4] 107 % of control

CN(C)CCNCCN
inactive: dose: 50.0 mg/kg/injection, schedule: Q01DX005 (ip), vehicle: saline 96 % of control | dose: 100.0 mg/kg/injection, schedule: Q01DX005 (ip), vehicle: saline 99 % of control

Cc1ccc(S(=O)(=O)N/N=c2\ccc3ccccc3n2C)cc1
inactive: dose: 100.0 mg/kg/injection, schedule: Q04DX002 (ip), vehicle: saline 100 % of control | dose: 200.0 mg/kg/injection, schedule: Q04DX002 (ip), vehicle: saline 99 % of control | dose: 400.0 mg/kg/injection, schedule: Q04DX002 (ip), vehicle: saline 101 % of control

CC(C)(C)OOC(=O)Cc1ccccc1
inactive: [5] 104 % of control | [6] 122 % of control | [7] 122 % of control

CC(=O)c1ccc2c(c1)[nH]c1ccccc12
inactive: dose: 100.0 mg/kg/injection, schedule: Q01DX009 (ip), vehicle: saline with Tween-80 86 % of control | dose: 200.0 mg/kg/injection, schedule: Q01DX009 (ip), vehicle: saline with Tween-80 90 % of control | dose: 400.0 mg/kg/injection, schedule: Q01DX009 (ip), vehicle: saline with Tween-80 90 % of control

Cc1csc([NH-])n1.Cc1csc([NH-])n1.[Cl][Pt+2][Cl]
inactive: dose: 100.0 mg/kg/injection, schedule: Q01DX001 (sc), vehicle: olive oil, sesame oil, peanut oil 104 % of control | dose: 200.0 mg/kg/injection, schedule: Q01DX001 (sc), vehicle: olive oil, sesame oil, peanut oil 107 % of control | dose: 400.0 mg/kg/injection, schedule: Q01DX001 (sc), vehicle: olive oil, sesame oil, peanut oil 104 % of control

O/N=C(\c1ccccc1)C1c2ccccc2-c2ccccc21
inactive: [5] 94 % of control | [6] 94 % of control | [7] 94 % of control

Cc1cccc(NC(=O)Oc2ccc(C#N)cc2)c1
inactive: [5] 97 % of control | [6] 109 % of control | [7] 106 % of control

CC(C)(C)c1cc(I)c(O)c(CN)c1
inactive: dose: 25.0 mg/kg/injection, schedule: Q01DX009 (ip), vehicle: saline 123 % of control

O=c1[nH]cnc2nc(S(=O)(=O)F)[nH]c12
inactive: [3] 103 % of control | [4] 103 % of control | [8] 103 % of control

NC(N)=NCCCC(N)C(=O)NC(CCCN=C(N)N)C(=O)O (stereo not drawn) (H-Arg-Arg-OH; configuration not given here)
inactive: dose: 50.0 mg/kg/injection, schedule: Q01DX005 (ip), vehicle: Klucel (hydroxypropylcellulose) (HPC) 103 % of control | dose: 100.0 mg/kg/injection, schedule: Q01DX005 (ip), vehicle: Klucel (hydroxypropylcellulose) (HPC) 100 % of control | dose: 200.0 mg/kg/injection, schedule: Q01DX005 (ip), vehicle: Klucel (hydroxypropylcellulose) (HPC) 100 % of control

CSc1nc(N(C)C)c2cnn(C3CCCCO3)c2n1 (stereo unspecified)
inactive: dose: 100.0 mg/kg/injection, schedule: Q04DX002 (ip), vehicle: saline with Tween-80 97 % of control | dose: 200.0 mg/kg/injection, schedule: Q04DX002 (ip), vehicle: saline with Tween-80 100 % of control | dose: 400.0 mg/kg/injection, schedule: Q04DX002 (ip), vehicle: saline with Tween-80 100 % of control

CCCCN=C1NS(=O)(=O)c2ccccc21
inactive: [3] 103 % of control | [4] 107 % of control | [8] 103 % of control

Cn1c2ccccc2c2nnc(-n3nc(-c4ccc(Br)cc4)cc3N)nc21
inactive: [1] 98 % of control | [2] 87 % of control | [4] 93 % of control | [8] 95 % of control

O=C(O)/C=C/C(=O)NNc1nc2ccccc2s1
inactive: dose: 60.0 mg/kg/injection, schedule: Q01DX005 (ip), vehicle: Klucel (hydroxypropylcellulose) (HPC) 97 % of control | dose: 120.0 mg/kg/injection, schedule: Q01DX005 (ip), vehicle: Klucel (hydroxypropylcellulose) (HPC) 96 % of control | dose: 240.0 mg/kg/injection, schedule: Q01DX005 (ip), vehicle: Klucel (hydroxypropylcellulose) (HPC) 89 % of control

O=C(CCl)c1cccnc1C(=O)O
inactive: dose: 25.0 mg/kg/injection, schedule: Q01DX009 (ip), vehicle: saline sonified 100 % of control | dose: 50.0 mg/kg/injection, schedule: Q01DX009 (ip), vehicle: saline sonified 100 % of control | dose: 100.0 mg/kg/injection, schedule: Q01DX009 (ip), vehicle: saline sonified 90 % of control

O=C(CCN1C(=O)NC(c2ccccc2)(c2ccccc2)C1=O)NCCN1CCOCC1
inactive: [5] 96 % of control | [6] 100 % of control | [7] 102 % of control

CCCCC(CC)COC(C)=O (stereo unspecified)
inactive: dose: 100.0 mg/kg/injection, schedule: Q04DX003 (ip), vehicle: saline with Tween-80 104 % of control | dose: 200.0 mg/kg/injection, schedule: Q04DX003 (ip), vehicle: saline with Tween-80 109 % of control | dose: 400.0 mg/kg/injection, schedule: Q04DX003 (ip), vehicle: saline with Tween-80 86 % of control

Cc1ccc(-n2c(C)nc3[nH]cc(C)c3c2=N)cc1
inactive: dose: 6.25 mg/kg/injection, schedule: Q01DX005 (ip), vehicle: Klucel (hydroxypropylcellulose) (HPC) 101 % of control | dose: 12.5 mg/kg/injection, schedule: Q01DX005 (ip), vehicle: Klucel (hydroxypropylcellulose) (HPC) 99 % of control | dose: 25.0 mg/kg/injection, schedule: Q01DX005 (ip), vehicle: Klucel (hydroxypropylcellulose) (HPC) 99 % of control

COC(=O)C(=Cc1ccc(OC)cc1)C(=O)OC
inactive: dose: 50.0 mg/kg/injection, schedule: Q01DX009 (ip), vehicle: saline 95 % of control | dose: 100.0 mg/kg/injection, schedule: Q01DX009 (ip), vehicle: saline 95 % of control | dose: 200.0 mg/kg/injection, schedule: Q01DX009 (ip), vehicle: saline 92 % of control

Cn1c2ccccc2c(=O)c2cc(NC(=O)/C=C/C(=O)Nc3ccc4c(c3)c(=O)c3ccccc3n4C)ccc21
inactive: [3] 102 % of control | [4] 105 % of control | [8] 106 % of control

C=C(C)C(=O)OCCN(CC)CC
inactive: [3] 100 % of control | [4] 99 % of control | [8] 100 % of control

CCOC(=O)N1CCc2cc(OC)c(OC)cc2/C1=C/c1cc(OC)c(OC)cc1Br
inactive: dose: 12.5 mg/kg/injection, schedule: Q01DX009 (ip), vehicle: other 94 % of control | dose: 25.0 mg/kg/injection, schedule: Q01DX009 (ip), vehicle: other 96 % of control | dose: 50.0 mg/kg/injection, schedule: Q01DX009 (ip), vehicle: other 96 % of control | dose: 100.0 mg/kg/injection, schedule: Q01DX009 (ip), vehicle: other 93 % of control | dose: 200.0 mg/kg/injection, schedule: Q01DX009 (ip), vehicle: other 93 % of control
